Test results taken from EP0193414A2, “Liposomes, process for their preparation and compositions containing them” (Fluck, David John, priority 1985, dated 1986).

Key:
[1] = depot formation at the injection site after intramuscular injection in goats; format: in vivo, goat
Procedure: An injection site depot from another goat to which free Samorin in aqueous solution was administered by the same route and at the same dosage as that from this Example was noted to be more diffuse.
Liposomal Berenil was recovered from each depot.

trypanosomiasis = details: free drug, cited from earlier work; for period of protection (prophylaxis): Samorin at 0.5-1.0 mg/kg, dependent on dosage and tsetse fly challenge
[2] = cited from earlier work; for side effects: free drug, 1 mg/kg for homidium and 0.5-1.0 mg/kg for Samorin
[3] = free drug in aqueous solution; cited from earlier work

| SMILES | period of protection (prophylaxis) (trypanosomiasis) | side effects [2] | other results |
| --- | --- | --- | --- |
| N=C(N)c1ccc(N=NNc2ccc(C(=N)N)cc2)cc1 [Berenil, diminazene aceturate] | a few days only |  | depot at the injection site ([1]; goat, intramuscular, 3.5 mg/kg live weight (calculated as active ingredient)): no indication of a depot |
| CC[n+]1c(-c2ccccc2)c2cc(N)ccc2c2ccc(N)cc21 [Homidium chloride, 2,7-diamino-9-phenyl-10-ethylphenanthridinium] | ≤ 60 days |  |  |
| CC[n+]1c(-c2ccccc2)c2cc(NN=Nc3cccc(C(=N)N)c3)ccc2c2ccc(N)cc21.Cl.[Cl-] [Samorin, 8-[(m-amidinophenylazo)amino]-3-amino-5-ethyl-6-phenylphenanthridinium chloride hydrochloride] | 60 to 120 days | reaction by the injected tissue to the drug | depot at the injection site ([1]; goat culled 15 days after intramuscular administration, 1 mg/kg live weight Samorin): more diffuse; dosage with therapeutic trypanocidal action (trypanosomiasis): 0.25 mg/kg |
| CC[n+]1c(-c2ccccc2)c2cc(N)ccc2c2ccc(N)cc21 [homidium, 2,7-diamino-9-phenyl-10-ethylphenanthridinium] |  | infrequent | drug depots after administration of free drug ([2]; intramuscular, free drug in aqueous solution): diffuse staining of muscle tissue |
| CC[n+]1c(-c2ccccc2)c2cc(N/N=N/c3cccc(C(=N)N)c3)ccc2c2ccc(N)cc21.[Cl-] [isometamidium chloride] |  |  | stability in aqueous solution [3]: rapid lability |
